Values quoted from earlier work, collected in patent publication US11857566B2, “Sulfonated polystyrene derivative for use in the treatment and/or prophylaxis of cat flu” (UNIWERSYTET JAGIELLONSKI, priority 2018, dated 2024).

How the values were obtained:
[1] = in vivo

[Cl-].[Li+] [lithium chloride]
in vitro antiviral activity against FCV (FCV): very high in vitro antiviral activity

CC(=O)OCC(CCn1cnc2cnc(N)nc21)COC(C)=O [famciclovir]
safety in treatment and prophylaxis of FHV infection in cats [1]: has been shown to be safe

Nc1nc2c(ncn2CCC(CO)CO)c(=O)[nH]1 [PCV, penciclovir]
concentration of PCV in cats (after famciclovir): much lower than expected

Nc1nc2c(ncn2COCCO)c(=O)[nH]1 [acyclovir]
activity in cats (FHV; compared with HSV-1 in humans): did not show equally high activity | bioavailability in cats (in vivo): low

OC(c1cc(C(F)(F)F)nc2c(C(F)(F)F)cccc12)C1CCCCN1 (stereo not drawn) [mefloquine]
in vitro antiviral activity against FCV (FCV): very high in vitro antiviral activity

CC(C)[C@H](N)C(=O)OCCOCn1cnc2c(=O)[nH]c(N)nc21 [VCV, Valaciclovir]
symptoms of the disease in cats who took the drug (FHV; in vivo): did not improve symptoms of the disease | adverse effects in cats [1]: many adverse effects, such as bone marrow suppression or liver and kidney necrosis leading to animal death

NC(=O)c1ncn([C@@H]2O[C@H](CO)[C@@H](O)[C@H]2O)n1 [ribavirin]
in vitro antiviral activity against FCV (FCV): inhibits FCV infection in vitro
